# Assay results taken from ChEMBL document CHEMBL1201862, “PubChem BioAssay data set” (2004).
#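 Where inhibition never reached the appropriate level, the endpoint shown equals the highest concentration tested. Otherwise, values were interpolated linearly from a five-concentration, 48-hour dose response in 96-well plates. At the GI50, growth is halved.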 Activity calls are given as the source filed them. Rule as the data show it: active = GI50 up to about 1.1 µM and inactive = higher. Where a SMILES comes first, the peptide text is derived from it. The star is where a group is joined. ONb = O=[N+]([O-])c1ccc(CO*)cc1; Boc = CC(C)(C)OC(=O)*
# Key:
# Assay in all cases: NCI-60 cell line screen, 48 h
# ACHN = test system: ACHN
# EKVX = test system: EKVX
# HCT-116 = test system: HCT-116
# HCT-15 = test system: HCT-15
# HL-60 = test system: HL-60
# K562 = test system: K562
# M14 = test system: M14
# NCI/ADR-RES = test system: NCI/ADR-RES
# OVCAR-4 = test system: OVCAR-4
# OVCAR-8 = test system: OVCAR-8
# RPMI-8226 = test system: RPMI-8226
# RXF 393 = test system: RXF 393
# SF-268 = test system: SF-268
# SK-MEL-2 = test system: SK-MEL-2
# SNB-75 = test system: SNB-75
# T47D = test system: T47D
# UACC-62 = test system: UACC-62
# CCRF-CEM = test system: CCRF-CEM
# Hs-578T = test system: Hs-578T
# LOX IMVI = test system: LOX IMVI
SMILES,GI50 (ACHN),GI50 (EKVX),GI50 (HCT-116),GI50 (HCT-15),GI50 (HL-60),GI50 (K562),GI50 (M14),GI50 (NCI/ADR-RES),GI50 (OVCAR-4),GI50 (OVCAR-8),GI50 (RPMI-8226),GI50 (RXF 393),GI50 (SF-268),GI50 (SK-MEL-2),GI50 (SNB-75),GI50 (T47D),GI50 (UACC-62),GI50 (CCRF-CEM),GI50 (Hs-578T),GI50 (LOX IMVI)
Nc1ccc(C(=O)NN2C(=O)[C@H](Cl)C2c2ccc(Cl)cc2)cc1 (stereo partly specified),0.789 µM (active),3.55 µM (inactive),0.434 µM (active),0.646 µM,1.91 µM (inactive),1.82 µM (inactive),1.58 µM (inactive),1.65 µM (inactive),0.615 µM (active),1.76 µM (inactive),1.21 µM (inactive),2.72 µM (inactive),1.06 µM (active),1.89 µM (inactive),0.223 µM (active),1.85 µM (inactive),1.68 µM (inactive),–,–,–
NCCS(=O)(=O)O [TAURINE],> 100 µM (inactive),> 100 µM (inactive),> 100 µM (inactive),> 100 µM,> 100 µM (inactive),> 100 µM (inactive),> 100 µM (inactive),> 100 µM (inactive),–,> 100 µM (inactive),> 100 µM (inactive),–,> 100 µM (inactive),> 100 µM (inactive),> 100 µM (inactive),> 100 µM (inactive),–,> 100 µM (inactive),> 100 µM (inactive),> 100 µM (inactive)
Cc1ccc(NC(=O)CC(=O)N2N=C(c3ccccc3)C(/N=N/c3ccc(S(=O)(=O)CCOS(=O)(=O)O)cc3)C2=O)cc1 (stereo unspecified),> 100 µM (inactive),> 100 µM (inactive),57.9 µM (inactive),> 100 µM,> 100 µM (inactive),> 100 µM (inactive),> 100 µM (inactive),> 100 µM (inactive),–,64.3 µM (inactive),> 100 µM (inactive),> 100 µM (inactive),> 100 µM (inactive),57.1 µM (inactive),> 100 µM (inactive),–,–,> 100 µM (inactive),29.2 µM (inactive),> 100 µM (inactive)
Cc1oc2c(c1C)S(=O)(=O)C(C#N)=C(c1ccccc1)N2,> 100 µM (inactive),> 100 µM (inactive),–,> 100 µM,–,> 100 µM (inactive),> 100 µM (inactive),> 100 µM (inactive),> 100 µM (inactive),> 100 µM (inactive),> 100 µM (inactive),–,> 100 µM (inactive),> 100 µM (inactive),> 100 µM (inactive),> 100 µM (inactive),> 100 µM (inactive),–,> 100 µM (inactive),> 100 µM (inactive)
C=CCNC1=C(C(=O)OCC)C(=O)CO1,> 100 µM (inactive),> 100 µM (inactive),> 100 µM (inactive),> 100 µM,> 100 µM (inactive),> 100 µM (inactive),> 100 µM (inactive),–,> 100 µM (inactive),> 100 µM (inactive),> 100 µM (inactive),> 100 µM (inactive),> 100 µM (inactive),> 100 µM (inactive),> 100 µM (inactive),–,> 100 µM (inactive),> 100 µM (inactive),–,> 100 µM (inactive)
CC(C)CC(NC(=O)OC(C)(C)C)C(=O)NC(CCC(=O)OCc1ccc([N+](=O)[O-])cc1)C(=O)OCc1ccc([N+](=O)[O-])cc1 (stereo not drawn) (Boc-Leu-Glu(ONb)-ONb; configuration not given here),46.6 µM (inactive),49.2 µM (inactive),37.5 µM (inactive),> 100 µM,4.05 µM (inactive),9.44 µM (inactive),26.2 µM (inactive),> 100 µM (inactive),> 100 µM (inactive),37.1 µM (inactive),22.4 µM (inactive),–,18.4 µM (inactive),22.1 µM (inactive),16.6 µM (inactive),92.3 µM (inactive),28.4 µM (inactive),19.8 µM (inactive),–,25.2 µM (inactive)
CC(C)(C)n1c(=O)n(-c2ccccc2)n(C(C)(C)C)c1=O,> 100 µM (inactive),> 100 µM (inactive),> 100 µM (inactive),> 100 µM,> 100 µM (inactive),> 100 µM (inactive),> 100 µM (inactive),> 100 µM (inactive),> 100 µM (inactive),> 100 µM (inactive),–,> 100 µM (inactive),–,> 100 µM (inactive),63.1 µM (inactive),–,> 100 µM (inactive),> 100 µM (inactive),> 100 µM (inactive),> 100 µM (inactive)
CCCCN(CCCC)/C(=N\C#N)NCc1ccccc1,26.2 µM (inactive),19.6 µM (inactive),27.1 µM (inactive),15 µM,10.5 µM (inactive),7.43 µM (inactive),22.3 µM (inactive),–,28.6 µM (inactive),26.1 µM (inactive),13.7 µM (inactive),22.5 µM (inactive),29.4 µM (inactive),21.7 µM (inactive),28.1 µM (inactive),–,16.3 µM (inactive),12.1 µM (inactive),–,16.5 µM (inactive)
